Data on 3 molecules can be found in US4417052A, “Phenyl-lower-alkyl piperidines and pyrrolidines” (Sterling Drug Inc., priority 1981, dated 1983).

The test system of assay [1] is bradykinin. Nature of the assay: anti-bradykinin test (BDK). The class given is in vivo. From the text: (§1) The test procedures used to determine the analgesic activities of the compounds have been described in detail in the prior art and are as follows: the acetylcholine-induced abdominal constriction test, which is a primary analgesic screening test designed to measure the ability of a test agent to suppress acetylcholine-induced abdominal constriction in mice, described by Collier et al., Brit. J. Pharmacol. Chemotherap. 32, 295 (1968); a modification of the anti-bradykinin test, which is also a primary analgesic screening procedure, described by Berkowitz et al., J. Pharmacol. Exp. Therap. 177, 500-508 (1971), Blane et al., J. Pharm. Pharmacol. 19, 367-373 (1967), Botha et al., Eur. J. Pharmacol. 6, 312-321 (1969) and Deffenu et al., J. Pharm. Pharmacol. 18, 135 (1966); the phenyl-p-quinone-induced writhing test, also a primary analgesic screening test, designed to measure the ability of a test agent to prevent phenyl-p-quinone-induced writhing in mice, described by Pearl and Harris, J. Pharmacol. Exptl. Therap. 154, 319-323 (1966); the rat tail flick radiant thermal heat analgesic (agonist) test described by D'Amour and Smith, J. Pharmacol. Exptl. Therap. 72, 74 (1941) as modified by Bass and VanderBrook, J. Am. Pharm. Assoc. Sci. Ed. 41, 569 (1956); and the phenazocine antagonist test, which is designed to measure the ability of a test agent to antagonize the effect of phenazocine in the above-indicated rat tail flick response test, described by Harris and Pierson, J. Pharmacol. Exptl. Therap. 143, 141 (1964).
Data so obtained for the species found active in one or more of these tests are given in TABLE C below, results being expressed either in terms of the ED50 or, in the acetylcholine-induced writhing test, as the percent inhibition of writhing in the test animals at a given dose level. The ED50 is the calculated Effective Dose in 50% of the test animals. The abbreviations s.c., p.o. and i.p. stand for subcutaneous, peroral and intraperitoneal routes of administration, respectively. The compounds are identified by the Example numbers above where their preparations are described.

Assay [2] in a line: antipyretic activity in the rat. The class given is in vivo.
In assay [3] the test system is acetylcholine-induced abdominal constriction. Nature of the assay: acetylcholine-induced abdominal constriction test (Ach). The class given is in vivo, mice. The settings on record: for ED50: Mus musculus, read-out: Ach ED50.
Excerpt: as §1, with “J.” for “The test procedures used to determine the analgesic activities of the compounds have been described in detail in the prior art and are as follows: the acetylcholine-induced abdominal constriction test, which is a primary analgesic screening test designed to measure the ability of a test agent to suppress acetylcholine-induced abdominal constriction in mice, described by Collier et al., Brit. J.”
The ED50 is the calculated Effective Dose in 50% of the test animals. The abbreviations s.c., p.o. and i.p. stand for subcutaneous, peroral and intraperitoneal routes of administration, respectively. The compounds are identified by the Example numbers above where their preparations are described.

The subject of assay [4] is rat tail flick response. The experiment in a line: rat tail flick radiant thermal heat analgesic (agonist) test (T.F. Ag.). As to conditions: in vivo.
Excerpt: as §1, with “41, 569 (1956); and the phenazocine antagonist test, which is designed to measure the ability of a test agent to antagonize the effect of phenazocine in the above-indicated rat tail flick response test, described by Harris and Pierson, J. Pharmacol. Exptl. Therap. 143, 141 (1964).” left out

The test system of assay [5] is phenyl-p-quinone-induced writhing. Nature of the assay: phenyl-p-quinone-induced writhing test (PPQ). The class given is in vivo, mice. The settings on record: Mus musculus, po.
Excerpt: as §1, with “41, 569 (1956); and the phenazocine antagonist test, which is designed to measure the ability of a test agent to antagonize the effect of phenazocine in the above-indicated rat tail flick response test, described by Harris and Pierson, J. Pharmacol. Exptl. Therap. 143, 141 (1964).” left out

In assay [6] the test system is effect of phenazocine in the rat tail flick response. The experiment in a line: phenazocine antagonist test in the rat tail flick response (T.F. Antag.). The settings on record: in vivo.
Excerpt: as §1, with “41, 569 (1956); and the phenazocine antagonist test, which is designed to measure the ability of a test agent to antagonize the effect of phenazocine in the above-indicated rat tail flick response test, described by Harris and Pierson, J. Pharmacol. Exptl. Therap. 143, 141 (1964).” left out

Assay [7] has as its system carrageenin-induced foot edema. The experiment in a line: inhibition of carrageenin-induced foot edema test (C.E.). The class given is in vivo. The settings on record: oral, read-out: C.E. percent inhibition; for inhibition in vivo at 80 µmol/kg: dose 0.08 millimoles/kg; for inhibition in vivo at 324 µmol/kg: dose 0.324 millimoles/kg. (In the carrageenan paw model, swelling and tenderness develop within hours.)

Assay [8] relates to adjuvant-induced arthritis. The experiment in a line: inhibition of adjuvant-induced arthritis test (A.A.). The class given is in vivo. As to conditions: oral, read-out: A.A. percent inhibition.
The subject of assay [9] is herpes simplex virus types 1 and 2. The experiment in a line: in vitro anti-viral activity against herpes simplex viruses types 1 and 2 (BSC cell line, monkey kidney). The class given is cell-based. The settings on record: read-out: MIC (Minimum Inhibitory Concentration). How it is done: Monolayers of tissue cultures (BSC, cell line, monkey kidney) were infected with one hundred TCID50 (Tissue Culture Infectious Dose50) of infectious virus. After one hour of virus adsorption, fresh maintenance medium containing various concentrations of the test compounds was added to the monolayers. Cultures were then incubated at 36°-37° C., and after forty-eight and seventy-two hours, cultures were examined microscopically. […] In the presence of an active compound, cells grow normally similar to those in the tissue culture control. Simultaneously with the anti-viral evaluation, the toxicity of each compound was evaluated in separate cultures. Identical concentrations of the test compound were added to the tissue culture monolayers in the absence of virus. Those concentrations of the compound which show toxic effects on the cells were not considered in the anti-viral evaluation.

Values after ≈ are worked out from the molar mass of the structure shown. Read-outs that look alike come from different tables or passages of the source.

As usually defined, the ED50 is the midpoint of the dose-response relation. On to `CC(CN1CCOCC1)c1cccc(C(=O)c2ccccc2)c1.Cl.O` (stereo not drawn) [7H (HCl), 4-[2-(3-benzoylphenyl)propyl]morpholine hydrochloride monohydrate], for which the ED50 stood at 82 mg/kg in [1] (ip); 13 mg/kg in [1] (po); 8.4 mg/kg in assay [3] (po); 14 mg/kg in assay [3] (sc); 132 mg/kg in assay [5]. For the same molecule, the antipyretic activity result in assay [2] (3.25 mg./kg. p.o.) is “not at 3.25 mg./kg”; in assay [2] (6.5 mg./kg. p.o.), “Showed significant antipyretic activity”; in assay [2] (13 mg./kg. p.o.), “Showed significant antipyretic activity”; in assay [2] (26 mg./kg. p.o.), “Showed significant antipyretic activity”. For the same molecule, the “T.F. Ag.” value in assay [4] is on record as “Inac”. For the same molecule, the “T.F. Antag.” value in assay [6] is “Inac”. Besides, the inhibition in vivo at 80 µmol/kg in [7] was 68%. The inhibition in vivo at 324 µmol/kg in assay [7] amounted to 73%.

As to `CC(CN1CCCCC1CC1CCCCC1)c1cccc(C(=O)c2ccccc2)c1` (stereo not drawn) [12, 14], the results for the ED50 in assay [1] (po) and in assay [3] (po) were 63 mg/kg and 55 mg/kg, respectively. Also, in assay [3] (dose 75, s.c.), the “Ach percent inhibition of writhing” value came out at 27%. The inhibition in vivo at 5 µmol/kg in [8] (dose 0.005 millimoles/kg) turned out to be 69%; in [7] (dose 0.005 millimoles/kg) it was 21%. In addition, the inhibition in vivo at 20 µmol/kg in assay [8] (dose 0.02 millimoles/kg) was 81%; in assay [7] (dose 0.02 millimoles/kg) it was 41%. Also, the inhibition in vivo at 80 µmol/kg is 87% in assay [8] (dose 0.08 millimoles/kg) and 51% in assay [7]. Besides, the MIC in assay [9] was found to be 6 µg/mL (≈ 14.9 µM). Besides, in [7], the inhibition in vivo at 324 µmol/kg was determined as 69%.

Consider `CC(CN1CCC2(CC1)OCCO2)c1cccc(C(=O)c2ccccc2)c1` (stereo not drawn) [Example 7G, 8-[2-(3-Benzoylphenyl)propyl]-1,4-dioxa-8-azaspiro[4,5]decane], for which the ED50 in [1] (po) was 14 mg/kg; in assay [3] (po), 4.7 mg/kg; in assay [5] it was 200 mg/kg. The antipyretic activity result is on record as “not at 6.5 or 3.25 mg./kg” in [2] (3.25 mg./kg. p.o.), “not at 6.5 or 3.25 mg./kg” in assay [2] (6.5 mg./kg. p.o.), “Showed significant antipyretic activity” in assay [2] (13 mg./kg. p.o.) and “Showed significant antipyretic activity” in assay [2] (26 mg./kg. p.o.). Moreover, the “T.F. Ag.” value in assay [4] was “Inac”. Moreover, the “T.F. Antag.” value in assay [6] is reported as “Inac”.
